Test results from patent US6479546B1, “Allosteric inhibitors of lipoxygenase” (The Regents of the University of California, priority 2000, dated 2002).
Counter-ions that a name gives are not always drawn. Like-named read-outs stand apart in the source and are kept apart here. One block for each molecule: values may come before it.

Legend:
SLO-1 [1] = target: T1, SLO-1 (Glycine max, UniProt P08170); experiment: Kinetic isotope effect (KIE) titration, SLO-1; type: biochemical, soybean; details: for Kd: SLO-1, 5 μM LA/D-LA, pH 9.2, read-out: KD from hyperbolic fit of KIE
T1 construct: made in house
T1 sequence (P08170 1-839): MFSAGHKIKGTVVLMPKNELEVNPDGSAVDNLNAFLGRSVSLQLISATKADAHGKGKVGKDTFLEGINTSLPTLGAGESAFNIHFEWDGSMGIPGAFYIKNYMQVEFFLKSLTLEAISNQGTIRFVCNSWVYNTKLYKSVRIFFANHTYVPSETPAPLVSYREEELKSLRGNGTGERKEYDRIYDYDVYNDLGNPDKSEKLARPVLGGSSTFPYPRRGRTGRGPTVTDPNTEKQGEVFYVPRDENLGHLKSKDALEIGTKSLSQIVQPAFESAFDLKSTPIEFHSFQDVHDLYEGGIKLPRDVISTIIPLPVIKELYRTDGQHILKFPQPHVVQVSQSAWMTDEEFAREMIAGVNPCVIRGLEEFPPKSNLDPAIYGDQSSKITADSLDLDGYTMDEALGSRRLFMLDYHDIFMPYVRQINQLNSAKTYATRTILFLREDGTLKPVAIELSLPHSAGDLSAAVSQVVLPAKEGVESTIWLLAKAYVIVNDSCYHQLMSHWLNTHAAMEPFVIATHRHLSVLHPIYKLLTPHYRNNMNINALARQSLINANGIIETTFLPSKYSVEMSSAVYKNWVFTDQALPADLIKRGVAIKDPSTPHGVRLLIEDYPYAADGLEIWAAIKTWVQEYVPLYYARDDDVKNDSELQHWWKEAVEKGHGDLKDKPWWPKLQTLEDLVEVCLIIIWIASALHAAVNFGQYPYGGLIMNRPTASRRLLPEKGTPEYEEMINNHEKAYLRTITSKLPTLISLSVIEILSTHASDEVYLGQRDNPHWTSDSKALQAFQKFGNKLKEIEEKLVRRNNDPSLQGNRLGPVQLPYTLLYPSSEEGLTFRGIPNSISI
Method: Kinetic Isotope Effect Determination. Determination of the kinetic isotope effect (KIE) was similar to that previously published by Holman and coworkers with the following modifications. Lewis et al., J. Am. Chem. Soc. (1994) 116:795-796. Lipoxygenase is added (0.12 nM SLO-1 and 12 nM 15-HLO) to a protio/per-deutero LA mixture (60 mL, 5 μM LA/D-LA), monitored at 234 nm with a P-E Lambda 4 and stopped with an acid quench (5% glacial acetic acid) at less than 5% total LA/D-LA consumption. […] The acidified reaction mixture is extracted with methylene chloride (trimethylphosphite, which quantitatively reduces the labile 13-HPOD, is not needed since both the alcohol and the peroxide have the same elution time). […] (isocratic mobile phase: 74.9% Methanol :25% H2O: 0.1% Acetic acid). […] Lewis et al., supra. […] When the percent conversion (f) to product is less than 5%, this equation simplifies to ([[…]]), where [P-H] is protio-product concentration and [So-H] is the initial protio-substrate concentration. […] et al., Reaction Rates of Isotopic Molecules (R. E. Krieger Publishing, Florida)(1987). […] Greater substrate ratios than 2:1 were not used due to the expensive nature of the per-deutero substrate. Under these conditions, the upper limit for the KIE is greater than 130 and is limited by the vanishingly small peak area of the per-deutero 13-HPOD peak relative to the negative control. This RP-HPLC based method for determining molar protio/per-deutero 13-HPOD ratios gave results identical (within experimental error) to those obtained by EI-MS. No appreciable side products at any wavelength for 15-HLO or SLO-1 were observed, indicating no reaction branching. The OS titration experiments require 5 μM LA/D-LA to record product ratios. For the 15-HLO experiments (pH 7.5), OS concentrations above 6 μM were not feasible due to large amounts of a white emulsion at the extraction interface which inhibited product recovery. This emulsion was not observed for reactions performed with SLO-1 (pH 9.2). […] All kinetic data reported were measured in triplicate on two distinct days.

[2] = Surface tension measurements (CMC); type: physicochemical
Method: Surface Tension Measurements. Buffers were used which correspond to those of the kinetic measurements. Surface tension was measured as described by Harkins et al., using a thin platinum plate (perimeter 2.5 cm) and a Cahn electro-microbalance. Harkins et al., J. Am. Chem. Soc. (1937) 59:2189-2197. Various amounts of surface active agent were added to a 30 ml buffer solution and the surface tension was continuously recorded. After each addition, a sufficiently long period of time (10-30 min.) was allowed to elapse before attaining a steady value of the surface tension. Critical micelle concentration (CMC) values were obtained by plotting the measured surface tensions versus the logarithm of the concentrations of the surface-active agent and recording the intercept of the two straight lines. The point at which a deviation from the straight line, as observed in the surface tension versus log [surface-active agent] plot, was defined as the start of pre-micellular aggregate formation. Harkins et al., supra; Verhagen et al., Chem. Phys. Lipids (1978) 22:255-259.

SLO-1 [3] = target: T1, SLO-1; experiment: Steady state kinetics / inhibition studies, SLO-1; type: biochemical, soybean
Method: Steady State Kinetics. Lipoxygenase rates were determined by following the formation of product at 234 nm (ε=25,000 M^−1cm^−1) with a Hewlett-Packard 8453 UV-vis spectrophotometer. The destruction of 13-HPOD by the diode array spectrophotometer were negligible under these reaction conditions. All reactions were 2 ml in volume, run at room temperature (23° C.) and constantly stirred with a rotating magnetic bar. In experiments using SLO-1, kinetic reactions were performed in 0.1 M borate (pH 9.2), while reactions using 15-HLO were performed in 25 mM HEPES (pH 7.5). Substrate solutions used in each experiment were measured for accurate LA concentration by quantitatively converting substrate to product using soybean lipoxygenase-1. Enzymatic rates were measured between 1-50 μM LA with 1-25 μM OS for SLO-1 and lower than 2 μM LA for 15-HLO. Solutions containing LA and/or OS were sonicated for 3-5 minutes before use in kinetic experiments. Rate reactions were initiated by the addition of enzyme to final concentrations of 3 nM SLO-1 (80% iron content) and 200 nM 15-HLO (15% iron content). All kinetic parameters were determined by non-linear regression using Kaleidagraph software (Abelbeck).

15-HLO = target: T2, 15-HLO (Homo sapiens, UniProt P16050); experiment: Kinetic isotope effect (KIE) titration, 15-HLO; type: biochemical
T2 construct: made in house
T2 sequence (P16050 1-662): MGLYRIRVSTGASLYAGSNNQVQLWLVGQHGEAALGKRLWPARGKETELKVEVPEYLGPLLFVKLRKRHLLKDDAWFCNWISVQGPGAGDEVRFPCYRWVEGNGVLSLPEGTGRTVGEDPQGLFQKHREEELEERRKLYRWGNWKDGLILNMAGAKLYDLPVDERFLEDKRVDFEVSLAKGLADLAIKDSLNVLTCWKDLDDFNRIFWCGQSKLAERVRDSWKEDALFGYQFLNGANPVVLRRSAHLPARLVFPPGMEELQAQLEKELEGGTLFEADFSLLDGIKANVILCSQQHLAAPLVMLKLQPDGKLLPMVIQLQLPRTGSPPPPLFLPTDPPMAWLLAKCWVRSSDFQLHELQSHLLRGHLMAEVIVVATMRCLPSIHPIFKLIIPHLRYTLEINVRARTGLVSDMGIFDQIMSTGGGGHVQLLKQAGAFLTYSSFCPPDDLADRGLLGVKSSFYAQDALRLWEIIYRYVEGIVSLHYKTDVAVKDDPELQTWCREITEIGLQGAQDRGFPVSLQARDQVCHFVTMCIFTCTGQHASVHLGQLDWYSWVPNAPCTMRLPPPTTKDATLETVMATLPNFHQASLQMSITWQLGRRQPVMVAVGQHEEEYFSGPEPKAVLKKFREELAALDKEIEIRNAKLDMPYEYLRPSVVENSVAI
Method: Kinetic Isotope Effect Determination. Determination of the kinetic isotope effect (KIE) was similar to that previously published by Holman and coworkers with the following modifications. Lewis et al., J. Am. Chem. Soc. (1994) 116:795-796. Lipoxygenase is added (0.12 nM SLO-1 and 12 nM 15-HLO) to a protio/per-deutero LA mixture (60 mL, 5 μM LA/D-LA), monitored at 234 nm with a P-E Lambda 4 and stopped with an acid quench (5% glacial acetic acid) at less than 5% total LA/D-LA consumption. It is important to note that diode array spectrophotometers degrade 13-hydroperoxy-9,11-(Z,E)-octadecadienoic acid (13-HPOD) and care should be taken if the reaction time length is longer than 5 minutes. The acidified reaction mixture is extracted with methylene chloride (trimethylphosphite, which quantitatively reduces the labile 13-HPOD, is not needed since both the alcohol and the peroxide have the same elution time). The methylene chloride layer is evaporated to dryness under vacuum, reconstituted in 50 μL running buffer, injected onto a C18 column (Higgins Analytical, 5 micron, 250×4.6 mm), and eluted at 1 mL/min. (isocratic mobile phase: 74.9% Methanol :25% H2O: 0.1% Acetic acid). […] All kinetic data reported were measured in triplicate on two distinct days.

Kd (SLO-1 [1]): 36000 ± 14000 nM
Compound: CCCCCCCC/C=C\CCCCCCCC(=O)O [OA, oleic acid]

effect on KIE (SLO-1 [1]; control for non-specific surfactant binding): no increase in the KIE
Compound: CCCCCCCCCCCCOS(=O)(=O)[O-].[Na+] [SDS]

CMC ([2]; 25 mM HEPES (pH 7.5)): 40 ± 10 µM
CMC ([2]; 0.1 M borate (pH 9.2)): 150 ± 10 µM
Kd (SLO-1 [3]; SLO-1, no appreciable substrate inhibition below 30 μM LA, read-out: KD (allosteric site)): > 30000 nM
Compound: CCCCC/C=C\C/C=C\CCCCCCCC(=O)O [LA, Linoleic Acid]

Kd (SLO-1 [1]): 600 ± 200 nM
Kd (15-HLO; 5 μM LA/D-LA, pH 7.5, read-out: KD from hyperbolic fit of KIE): 400 ± 50 nM
Kd (15-HLO; conclusion, unit inferred, read-out: KD): 450 ± 50 nM
lessens the rate of catalysis (k2 decreases) (SLO-1 [3]; SLO-1): 15%
Ki (SLO-1 [3]; fit to Km (app) saturation curve, Eq. 3, read-out: Ki): 450 ± 160 nM
Ki (SLO-1 [3]; fit to kcat/Km data, Eq. 4, β approximated 0.85, read-out: Ki): 860 ± 110 nM
Ki (SLO-1 [3]; simulation Scheme 3, Eqs. 7 and 8, read-out: Kii (catalytic site), minimal value): ≥ 100000 nM
Compound: CCCCCCCC/C=C\CCCCCCCCOS(=O)(=O)O [OS, (Z)-9-octadecenyl sulfate]
